Assay results from US12410124B2 (priority 2019, dated 2025).

Experiments:
Assay type in all cases: in vivo
substantia nigra CD11b = assay: Number of substantia nigra microglial cells with CD11b positive expression in MPTP Parkinson's disease model mouse (immunohistochemistry); details: substantia nigra, MPTP Parkinson's disease model mouse, immunohistochemistry
Procedure: (§1) Neurotoxins can be used to establish PD animal models. Currently, 1-methyl-4-phenyl-1,2,3,6-tetrahydropyridine (MPTP) is the sole synthetic toxin which is recognized to induce PD symptoms in human and non-human primates and in mice. Using MPTP subacute modeling method, C57BL/6J male mice were intraperitoneally injected with MPTP 30 mg/kg, once a day for 5 consecutive days. The experiment animals were divided into blank control group, MPTP model group, and compound treatment group. For the […] compound treatment group, the compound was administrated by gavage for 21 consecutive days after the completion of modeling; for the MPTP model group, the normal saline was administrated by gavage for 21 consecutive days after the completion of modeling; and for the blank control group, the normal saline was first intraperitoneally injected for 5 days, and then administrated by gavage for 21 days.
(§2) Neuron-glial cell network homeostasis disorder is an important factor for the selective and progressive death of substantia nigra dopaminergic neurons in PD. In the neurotoxic effect of MPTP, the excessive activations of microglial cells and astrocytes produce a variety of inflammatory cytokines and reactive oxygen species (ROS). These inflammatory factors and ROS amplify their respective toxicities and mediate malignant feedback loop, causing a cascade inflammation response and aggravating the pathological process of PD. CD11b and GFAP are the marker proteins for activations of microglial cells and astrocytes, respectively. Therefore, the effect of the target compounds on the activations of the microglial cells and astrocytes in the substantia nigra, hippocampus, and midbrain areas of MPTP-induced PD mice can be investigated, to explore the mechanism of the anti-PD effect of the target compounds by inhibiting the neuroinflammation.
(§3) Half of experiment mice in each group were taken to separate the midbrain after perfusion and fixation. The tissue was trimmed, and the substantia nigra area was taken to prepare paraffin sections. The CD11b immunohistochemical staining was performed for the statistics of the change in the number of microglial cells with CD11b positive expression. The experiment included blank control group, MPTP model group, positive control group (caffeic acid phenethyl ester, CAPE), prototype control group (styryl sulfone compounds 3B, 3C, 3D, and 3G, whose structures are shown as above), and target compound group.

substantia nigra p-α-s = assay: Substantia nigra p-α-s protein expression in MPTP Parkinson's disease model mouse (immunofluorescence); details: percentage of mean intensity of blank control group, gavage 21 days after MPTP modeling
Procedure: as §1
Alpha-synuclein is an “unfolded protein” in its natural state. It exists in a monomeric form, and participates in the physiological functions such as the release of neurotransmitters, the establishment of synaptic junctions, and the regulation of synaptic plasticity. Under pathological conditions, more than 90% of alpha-synuclein is phosphorylated at serine of position 129 and converted into phosphorylated alpha-synuclein (p-α-s), thereby forming Lewy bodies. The formation of Lewy bodies is one of the main pathological manifestations and pathological mechanisms for Parkinson's disease, and plays an important role in the formation and development of PD. The detection of the p-α-s expression in the midbrain and substantia nigra of PD model mice can evaluate the neuroprotective activity of the compound.
as §3, with “nigra-striatum” for “nigra”, “p-α-s immunofluorescence” for “CD11b immunohistochemical”, “performed” for “performed for the statistics of the change”, “brain sections” for “number”, “mice in each group. […]” for “microglial cells with CD11b positive expression.”

substantia nigra GFAP = assay: Number of substantia nigra astrocytes with GFAP positive expression in MPTP Parkinson's disease model mouse (immunohistochemistry); details: substantia nigra, MPTP Parkinson's disease model mouse, immunohistochemistry
Procedure: as §1, §2
as §3, with “GFAP” for “CD11b”, “astrocytes” for “microglial cells”

hippocampus CD11b = assay: Number of hippocampus microglial cells with CD11b positive expression in MPTP Parkinson's disease model mouse (immunohistochemistry); details: hippocampus, MPTP Parkinson's disease model mouse, immunohistochemistry
Procedure: as §1, §2
as §3, with “hippocampus” for “substantia nigra”

substantia nigra pp38 = assay: Substantia nigra pp38 protein expression in MPTP Parkinson's disease model mouse (immunofluorescence); details: percentage of mean intensity of blank control group, gavage 21 days after MPTP modeling
Procedure: as §1
The p38 mitogen-activated protein kinase (p38 MAPK) is expressed in both neurons and glial cells, and is the intersection point of neuron-glial cell network information regulations. The activation of p38 signaling pathway is an important initiator of neuronal degeneration, which continuously induces the apoptosis of dopaminergic neurons in multiple ways. It has become a research hotspot for the treatment of PD. Studies have shown that the protective mechanism of CAPE against the death of primary cultured cerebellar granule neurons induced by glutamate lies in inhibiting the activation of p38 phosphorylation and in turn inhibiting the activation of the caspase 3 apoptotic pathway to prevent neuronal apoptosis. Therefore, the MPTP-induced PD mouse model can be used to investigate the inhibitory effect of the target compounds on the activation of p38 phosphorylation on the overall animal level.
as §3, with “nigra-striatum” for “nigra”, “double immunofluorescence” for “CD11b immunohistochemical”, “staining for TH and phosphorylated p38” for “staining”, “performed to observe the coexpression of TH and phosphorylated p38,” for “performed”, “phosphorylated p38 protein” for “number of microglial cells with CD11b positive”

substantia nigra TH = assay: Substantia nigra TH expression in MPTP Parkinson's disease model mouse (immunofluorescence); details: percentage of mean intensity of blank control group, gavage 21 days after MPTP modeling
Procedure: as §1
The main cause of PD lies in the pathological changes in the substantia nigra-striatum projection system of the brain and the progressive degeneration and loss of dopaminergic neurons. Tyrosine hydroxylase (TH) is the first enzyme in the biosynthesis of catecholamine neurotransmitters, as well as the first rate-limiting enzyme in the dopamine synthesis. It plays an important role in the synthesis and metabolism of the neurotransmitter DA. The TH in PD animal models and patients has a wide range of abnormal changes, from the gene expression to the enzyme protein content and enzyme activity. The detection of the TH expression in the midbrain and substantia nigra of PD model mice can be used to evaluate the neuroprotective activity of the compound.
as §3, with “nigra-striatum” for “nigra”, “TH immunofluorescence” for “CD11b immunohistochemical”, “performed” for “performed for the statistics of the change”, “brain sections” for “number”, “mice in each group. […]” for “microglial cells with CD11b positive expression.”

Row | Compound | Positive cell number (microglial cells with CD11b positive expression) (substantia nigra CD11b) | Expression (Immunofluorescence intensity %) (substantia nigra p-α-s) [%] | Positive cell number (astrocytes with GFAP positive expression) (substantia nigra GFAP) | Positive cell number (microglial cells with CD11b positive expression) (hippocampus CD11b) | Expression (Immunofluorescence intensity %) (substantia nigra pp38) [%] | Expression (Immunofluorescence intensity %) (substantia nigra TH) [%]
1 | COc1ccc(CC(=O)Oc2ccc(/C(C)=C/S(=O)(=O)/C=C/c3ccc(OC(=O)N(C)C)c(O[Si](C)(C)CCl)c3)cc2)cc1 [Compound P1-7, 4-{(E)-1-[(E)-3-(chloromethyldimethylsiloxy)-4-(N,N-dimethylcarbamoyloxy)styrylsulfonyl]prop-1-en-2-yl}phenyl-2-(4-methoxyphenyl) acetate] | 15 ± 2 | 61.28 ± 5.36 | 73 ± 5 | 8 ± 2 | 77.29 ± 13.06 | 88.07 ± 5.03
2 | CC(C)N(c1ccc(CCS(=O)(=O)/C=C/c2ccc(OC(=O)N(C)c3ccc(I)cc3)c(OCCOCc3ccccc3)c2)cc1)C(C)C [Compound A1-3, (E)-2-(2-benzyloxyethoxy)-4-{2-[4-(N,N-diisopropylamino)phenylethylsulfonyl]ethenyl}phenyl-N-(4-iodophenyl)-N-methylcarbamate] | 38 ± 4 | 134.19 ± 11.28 | 105 ± 6 | 14 ± 2 | 58.19 ± 12.07 | 89.68 ± 5.69
3 | CC(Br)C(Br)COc1cc(/C=C/S(=O)(=O)CCc2ccc(OCC(F)(F)F)cc2)ccc1OC(=O)Nc1ccsc1 (stereo not drawn) [Compound K1-3, (E)-2-(2,3-dibromobutoxy)-4-{2-[4-(2,2,2-trifluoroethoxy)phenylethylsulfonyl]ethenyl}phenyl-N-(thien-3-yl)carbamate] | 32 ± 4 | 90.04 ± 7.43 | 86 ± 5 | 16 ± 1 | 73.08 ± 18.10 | 87.28 ± 4.11
4 | C=CCOc1ccc(C/C=C/S(=O)(=O)/C=C/c2ccc(OC(C)=O)c(OC(=O)N(CC=C)CC=C)c2)cc1 [Compound K1-4, 4-{(E)-2-[(E)-3-(4-allyloxyphenyl)prop-1-en-1-yl]sulfonylethenyl}-2-(N,N-diallylcarbamoyloxy)phenyl acetate] | 30 ± 4 | 106.95 ± 9.27 | 112 ± 4 | 13 ± 2 | 100.80 ± 5.48 | 74.20 ± 6.58
5 | CC(=O)Oc1ccc(/C=C/S(=O)(=O)Cc2c(F)c(F)c(F)c(F)c2F)cc1OC(=O)NC(=O)c1ccc([N+](=O)[O-])c(C)c1 [Compound D5-4, (E)-2-[N-(3-methyl-4-nitrobenzoyl)carbamoyloxy]-4-{2-[(perfluorophenyl)mesyl]ethenyl}phenyl acetate] | 41 ± 3 | 186.19 ± 11.02 | 97 ± 5 | 12 ± 2 | 103.25 ± 15.27 | 99.86 ± 6.27
6 | O=C(/C=C/c1ccc(O)c(O)c1)OCCc1ccccc1 [Positive control group, caffeic acid phenethyl ester, reference compound] | 49 ± 7 | 202.07 ± 8.34 | 132 ± 8 | 24 ± 2 | 139.72 ± 25.32 | 79.21 ± 6.59
7 | CC(C)(C)c1ccc(CS(=O)(=O)/C=C/c2ccc(O)c(O)c2)cc1 [Compound 3G, (E)-4-{2-[(4-t-butylphenyl)mesyl]ethenyl}benzene-1,2-diol, reference compound] | 52 ± 5 | 203.66 ± 8.37 | 130 ± 6 | 18 ± 3 | 118.25 ± 10.60 | 76.08 ± 7.08
8 | Cc1ccc(S(=O)(=O)Oc2ccc(CS(=O)(=O)/C=C/c3ccc(OS(=O)(=O)c4ccc(C)cc4)c(OC(=O)N(C)S(=O)(=O)c4ccc(C)cc4)c3)cc2)cc1 [Compound S6-6, (E)-2-(N-methyl-N-p-tosylcarbamoyloxy)-4-{2-[(4-p-tosyloxyphenyl)mesyl]ethenyl}phenyl p-toluenesulfonate] | 19 ± 2 | 72.57 ± 6.63 | 78 ± 4 | 9 ± 2 | 105.30 ± 10.08 | 96.01 ± 7.32
